Experiments:
human SGLT2 = molecular target: T1, human SGLT2 (Homo sapiens, UniProt P31639); assay: Methyl-α-D-[U-14C]glucopyranoside uptake assay in HEK293.ETN cells stably expressing human SGLT2; assay type: cell-based; conditions: 1.5 h incubation
T1 construct: A full-length cDNA clone expressing human SGLT2
T1 sequence (P31639 1-672): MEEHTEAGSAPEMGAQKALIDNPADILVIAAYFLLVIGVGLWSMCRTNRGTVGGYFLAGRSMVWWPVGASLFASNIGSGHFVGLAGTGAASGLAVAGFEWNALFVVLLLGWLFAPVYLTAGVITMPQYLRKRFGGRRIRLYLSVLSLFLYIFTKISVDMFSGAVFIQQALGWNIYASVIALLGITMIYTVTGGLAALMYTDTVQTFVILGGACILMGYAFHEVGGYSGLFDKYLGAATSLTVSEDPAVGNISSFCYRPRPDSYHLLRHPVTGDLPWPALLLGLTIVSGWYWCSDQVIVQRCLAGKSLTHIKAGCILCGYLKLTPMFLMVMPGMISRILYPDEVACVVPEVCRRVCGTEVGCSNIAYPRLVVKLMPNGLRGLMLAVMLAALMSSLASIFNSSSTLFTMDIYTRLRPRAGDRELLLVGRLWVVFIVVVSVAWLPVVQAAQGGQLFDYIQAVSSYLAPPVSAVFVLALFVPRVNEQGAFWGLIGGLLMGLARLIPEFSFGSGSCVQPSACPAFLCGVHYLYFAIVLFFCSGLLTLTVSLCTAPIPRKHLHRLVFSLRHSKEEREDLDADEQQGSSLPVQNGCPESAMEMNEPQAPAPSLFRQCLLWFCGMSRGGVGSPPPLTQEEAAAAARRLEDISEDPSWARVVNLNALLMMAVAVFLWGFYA
Source text: A full-length cDNA clone expressing human SGLT2 (GenScript Corporation) was subcloned into Hind III and Not I sites of pEAK15 expression vector. Clones harboring the cDNA inserts were identified by restriction analysis.
Plasmid containing human SGLT2 was linearized with Nsi I and purified by agarose gel electrophoresis. Using Lipofectamine 2000 Transfection Reagent (Invitrogen Corporation), DNA was transfected into HEK293.ETN cells and cultured in Dulbecco's Modified Eagle Medium (DMEM) containing 10% fetal bovine serum (FBS) at 37° C. under 5% CO2 for 24 h. Transfectants were selected in the same growth medium supplemented with puromycin (Invitrogen Corporation) for two weeks. Puromycin-resistant cells were recovered and seeded on a fresh 96-well plate (single cell per well) and cultured in the presence of puromycin until cells became confluent. Puromycin-resistant clones were evaluated for SGLT2 activity in the methyl-α-D-[U-^14C]glucopyranoside uptake assay described below.
(§1) Cells expressing SGLT1 or SGLT2 were seeded on 96-well ScintiPlate scintillating plates (PerkinElmer, Inc.) in DMEM containing 10% FBS (1×10^5 cells per well in 100 μl medium) incubated at 37° C. under 5% CO2 for 48 h prior to the assay. Cells were washed twice with 150 μl of either sodium buffer (137 mM NaCl, 5.4 mM KCl, 2.8 mM CaCl2, 1.2 mM MgCl2, 10 mM tris(hydroxymethyl)aminomethane/N^2-hydroxyethylpiperazine-N′-ethanesulfonic acid [Tris/Hepes], pH 7.2) or sodium-free buffer (137 mM N-methyl-glucamine, 5.4 mM KCl, 2.8 mM CaCl2, 1.2 mM MgCl2, 10 mM Tris/Hepes, pH 7.2). Test compound in 50 μl each of sodium or sodium-free buffer containing 40 μCi/ml methyl-α-D-[U-^14C]glucopyranoside (Amersham Biosciences/GE Healthcare), either with (symbols in parentheses) or without (symbols without parentheses) 25% human serum, was added per well of a 96-well plate and incubated at 37° C. with shaking for either 2 h (SGLT1 assay) or 1.5 h (SGLT2 assay). Cells were washed twice with 150 μl of wash buffer (137 mM N-methylglucamine, 10 mM Tris/Hepes, pH 7.2) and methyl-α-D-[U-^14C]glucopyranoside uptake was quantitated using a TopCount scintillation counter (PerkinElmer, Inc.). Sodium-dependent glucopyranoside uptake was measured by subtracting the values obtained with sodium-free buffer from those obtained using sodium buffer (average of triplicate determinations).

human SGLT1 = molecular target: T2, human SGLT1 (Homo sapiens, UniProt P13866); assay: Methyl-α-D-[U-14C]glucopyranoside uptake assay in COS-7 cells expressing human SGLT1; assay type: cell-based; conditions: 2 h incubation
T2 construct: Full-length human SGLT1 cDNA on pDream2.1 expression vector; host or cells: COS-7 cells (American Type Culture Collection)
T2 sequence (P13866 1-664): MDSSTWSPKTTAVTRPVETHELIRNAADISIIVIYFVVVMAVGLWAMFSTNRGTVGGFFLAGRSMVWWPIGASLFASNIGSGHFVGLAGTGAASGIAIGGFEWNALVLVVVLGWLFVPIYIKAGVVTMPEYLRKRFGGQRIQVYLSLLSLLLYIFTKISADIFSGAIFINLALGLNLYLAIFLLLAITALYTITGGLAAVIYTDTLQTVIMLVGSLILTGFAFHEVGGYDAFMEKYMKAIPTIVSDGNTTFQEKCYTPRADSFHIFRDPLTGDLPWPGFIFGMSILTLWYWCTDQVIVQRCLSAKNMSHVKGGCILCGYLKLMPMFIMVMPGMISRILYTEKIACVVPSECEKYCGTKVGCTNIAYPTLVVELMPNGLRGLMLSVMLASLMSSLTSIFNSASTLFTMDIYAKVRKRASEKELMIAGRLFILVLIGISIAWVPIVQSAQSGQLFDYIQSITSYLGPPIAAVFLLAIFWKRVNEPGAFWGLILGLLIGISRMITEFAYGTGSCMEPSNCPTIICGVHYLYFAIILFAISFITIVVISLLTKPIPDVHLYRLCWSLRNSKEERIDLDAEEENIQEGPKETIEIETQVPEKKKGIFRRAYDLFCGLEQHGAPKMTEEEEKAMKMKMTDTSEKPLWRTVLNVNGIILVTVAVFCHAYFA
Description: Full-length human SGLT1 cDNA on pDream2.1 expression vector was obtained from GenScript Corporation and propagated in Escherichia coli strain DH5α using Luria-Bertani (LB) medium containing ampicillin. Plasmid DNA was isolated using the QIAGEN Plasmid Midi Kit (QIAGEN Inc.). […] Transfected cells were stored in DMEM containing 10% dimethyl sulfoxide (DMSO) at −80° C.
as §1

[1] = incubation with 25% human serum (symbols in parentheses)
[2] = without human serum (symbols without parentheses)

Structure (SMILES)	IC50 (human SGLT2; [1])	IC50 (human SGLT1; [1])	IC50 (human SGLT2; [2])	IC50 (human SGLT1; [2])
OC[C@H]1O[C@@H](c2ccc(Cl)c(Cc3ccc(OC/C=C/C4CC4)cc3)c2)[C@H](O)[C@@H](O)[C@@H]1O [Compound BZ, (2S,3R,4R,5S,6R)-2-(4-chloro-3-(4-((E)-3-cyclopropylallyloxy)benzyl)phenyl)-6-(hydroxymethyl)tetrahydro-2H-pyran-3,4,5-triol]	< 1 µM	> 10 µM	–	–
OC[C@H]1O[C@@H](c2ccc(Cl)c(Cc3ccc(OCCOCCF)cc3)c2)[C@H](O)[C@@H](O)[C@@H]1O [Compound CC, (2S,3R,4R,5S,6R)-2-(4-chloro-3-(4-(2-(2-fluoroethoxy)ethoxy)benzyl)phenyl)-6-(hydroxymethyl)tetrahydro-2H-pyran-3,4,5-triol]	–	–	< 1 µM	1 to 10 µM
OC[C@H]1O[C@@H](c2ccc(Cl)c(Cc3ccc(OCCOCC(F)F)cc3)c2)[C@H](O)[C@@H](O)[C@@H]1O [Compound CF, (2S,3R,4R,5S,6R)-2-(4-chloro-3-(4-(2-(2,2-difluoroethoxy)ethoxy)benzyl)phenyl)-6-(hydroxymethyl)tetrahydro-2H-pyran-3,4,5-triol]	–	–	< 1 µM	1 to 10 µM
OC[C@H]1O[C@@H](c2ccc(Cl)c(Cc3ccc(OCCOCCN4CCCC4)cc3)c2)[C@H](O)[C@@H](O)[C@@H]1O [Compound CH, (2S,3R,4R,5S,6R)-2-(4-chloro-3-(4-(2-(2-(pyrrolidin-1-yl)ethoxy)ethoxy)benzyl)phenyl)-6-(hydroxymethyl)tetrahydro-2H-pyran-3,4,5-triol]	< 1 µM	1 to 10 µM	–	–
OC[C@H]1O[C@@H](c2ccc(Cl)c(Cc3ccc(OCCO[C@H]4CCOC4)cc3)c2)[C@H](O)[C@@H](O)[C@@H]1O [Compound CK, (2S,3R,4R,5S,6R)-2-(4-chloro-3-(4-(2-((S)-tetrahydrofuran-3-yloxy)ethoxy)benzyl)phenyl)-6-(hydroxymethyl)tetrahydro-2H-pyran-3,4,5-triol]	< 1 µM	1 to 10 µM	–	–
OC[C@H]1O[C@@H](c2ccc(Cl)c(Cc3ccc(OCCOC4CCC4)cc3)c2)[C@H](O)[C@@H](O)[C@@H]1O [Compound CM, (2S,3R,4R,5S,6R)-2-(4-chloro-3-(4-(2-cyclobutoxyethoxy)benzyl)phenyl)-6-(hydroxymethyl)tetrahydro-2H-pyran-3,4,5-triol]	< 1 µM	> 10 µM	–	–
CC1(OCCOc2ccc(Cc3cc([C@@H]4O[C@H](CO)[C@@H](O)[C@H](O)[C@H]4O)ccc3Cl)cc2)CC1 [Compound CP, (2S,3R,4R,5S,6R)-2-(4-chloro-3-(4-(2-(1-methylcyclopropoxy)ethoxy)benzyl)phenyl)-6-(hydroxymethyl)tetrahydro-2H-pyran-3,4,5-triol]	< 1 µM	> 10 µM	–	–
OC[C@H]1O[C@@H](c2ccc(Cl)c(Cc3ccc(CCOC4CC4)cc3)c2)[C@H](O)[C@@H](O)[C@@H]1O [Compound CT, (2S,3R,4R,5S,6R)-2-(4-chloro-3-(4-(2-cyclopropoxyethyl)benzyl)phenyl)-6-(hydroxymethyl)tetrahydro-2H-pyran-3,4,5-triol]	< 1 µM	> 10 µM	–	–
OC[C@H]1O[C@@H](c2ccc(Cl)c(Cc3ccc(COC4CC4)cc3)c2)[C@H](O)[C@@H](O)[C@@H]1O [Compound CX, (2S,3R,4R,5S,6R)-2-(4-chloro-3-(4-(cyclopropoxymethyl)benzyl)phenyl)-6-(hydroxymethyl)tetrahydro-2H-pyran-3,4,5-triol]	< 1 µM	> 10 µM	–	–
CC(COc1ccc(Cc2cc([C@@H]3O[C@H](CO)[C@@H](O)[C@H](O)[C@H]3O)ccc2Cl)cc1)OC1CC1 (stereo partly drawn) [Compound DC, (2S,3R,4R,5S,6R)-2-(4-chloro-3-(4-(2-cyclopropoxypropoxy)benzyl)phenyl)-6-(hydroxymethyl)tetrahydro-2H-pyran-3,4,5-triol]	< 1 µM	1 to 10 µM	–	–

Further lines, results first:

IC50 (human SGLT2; [1])	IC50 (human SGLT1; [1])	IC50 (human SGLT2; [2])	IC50 (human SGLT1; [2])	Structure (SMILES)
< 1 µM	1 to 10 µM	–	–	OC[C@H]1O[C@@H](c2ccc(Cl)c(Cc3ccc(OCCOC4CCCC4)cc3)c2)[C@H](O)[C@@H](O)[C@@H]1O [Compound AD, (2S,3R,4R,5S,6R)-2-(4-chloro-3-(4-(2-(cyclopentyloxy)ethoxy)benzyl)phenyl)-6-(hydroxymethyl)tetrahydro-2H-pyran-3,4,5-triol]
< 1 µM	> 10 µM	–	–	OC[C@H]1O[C@@H](c2ccc(Cl)c(Cc3ccc(OCC#CC4CC4)cc3)c2)[C@H](O)[C@@H](O)[C@@H]1O [Compound AV, (2S,3R,4R,5S,6R)-2-(4-chloro-3-(4-(3-cyclopropylprop-2-ynyloxy)benzyl)phenyl)-6-(hydroxymethyl)tetrahydro-2H-pyran-3,4,5-triol]
< 1 µM	> 10 µM	–	–	OC[C@H]1O[C@@H](c2ccc(Cl)c(Cc3ccc(CCOC(F)F)cc3)c2)[C@H](O)[C@@H](O)[C@@H]1O [Compound BN, (2S,3R,4R,5S,6R)-2-(4-chloro-3-(4-(2-(difluoromethoxy)ethyl)benzyl)phenyl)-6-(hydroxymethyl)tetrahydro-2H-pyran-3,4,5-triol]
< 1 µM	1 to 10 µM	–	–	OC[C@H]1O[C@@H](c2ccc(Cl)c(Cc3ccc(OCCOC4CC4)cc3)c2)[C@H](O)[C@@H](O)[C@@H]1O [Compound BQ, (2S,3R,4R,5S,6R)-2-(4-chloro-3-(4-(2-cyclopropoxyethoxy)benzyl)phenyl)-6-(hydroxymethyl)tetrahydro-2H-pyran-3,4,5-triol]
< 1 µM	1 to 10 µM	–	–	OC[C@H]1O[C@@H](c2ccc(Cl)c(Cc3ccc(OCCOCC(F)(F)F)cc3)c2)[C@H](O)[C@@H](O)[C@@H]1O [Compound BT, (2S,3R,4R,5S,6R)-2-(4-chloro-3-(4-(2-(2,2,2-trifluoroethoxy)ethoxy)benzyl)phenyl)-6-(hydroxymethyl)tetrahydro-2H-pyran-3,4,5-triol]
< 1 µM	> 10 µM	–	–	OC[C@H]1O[C@@H](c2ccc(Cl)c(Cc3ccc(OCCOC4C=CCCC4)cc3)c2)[C@H](O)[C@@H](O)[C@@H]1O (stereo partly drawn) [Compound BW, (2S,3R,4R,5S,6R)-2-(4-chloro-3-(4-(2-(cyclohex-2-enyloxy)ethoxy)benzyl)phenyl)-6-(hydroxymethyl)tetrahydro-2H-pyran-3,4,5-triol]
